We go through 21 compounds from patent US9884063B2, “Amido-substituted azole compounds” (Bayer Pharma Aktiengesellschaft, priority 2014, dated 2018).

One assay concerns the target T1, TNKS2 (Homo sapiens, UniProt Q9H2K2).
T1 sequence (Q9H2K2 1-1166): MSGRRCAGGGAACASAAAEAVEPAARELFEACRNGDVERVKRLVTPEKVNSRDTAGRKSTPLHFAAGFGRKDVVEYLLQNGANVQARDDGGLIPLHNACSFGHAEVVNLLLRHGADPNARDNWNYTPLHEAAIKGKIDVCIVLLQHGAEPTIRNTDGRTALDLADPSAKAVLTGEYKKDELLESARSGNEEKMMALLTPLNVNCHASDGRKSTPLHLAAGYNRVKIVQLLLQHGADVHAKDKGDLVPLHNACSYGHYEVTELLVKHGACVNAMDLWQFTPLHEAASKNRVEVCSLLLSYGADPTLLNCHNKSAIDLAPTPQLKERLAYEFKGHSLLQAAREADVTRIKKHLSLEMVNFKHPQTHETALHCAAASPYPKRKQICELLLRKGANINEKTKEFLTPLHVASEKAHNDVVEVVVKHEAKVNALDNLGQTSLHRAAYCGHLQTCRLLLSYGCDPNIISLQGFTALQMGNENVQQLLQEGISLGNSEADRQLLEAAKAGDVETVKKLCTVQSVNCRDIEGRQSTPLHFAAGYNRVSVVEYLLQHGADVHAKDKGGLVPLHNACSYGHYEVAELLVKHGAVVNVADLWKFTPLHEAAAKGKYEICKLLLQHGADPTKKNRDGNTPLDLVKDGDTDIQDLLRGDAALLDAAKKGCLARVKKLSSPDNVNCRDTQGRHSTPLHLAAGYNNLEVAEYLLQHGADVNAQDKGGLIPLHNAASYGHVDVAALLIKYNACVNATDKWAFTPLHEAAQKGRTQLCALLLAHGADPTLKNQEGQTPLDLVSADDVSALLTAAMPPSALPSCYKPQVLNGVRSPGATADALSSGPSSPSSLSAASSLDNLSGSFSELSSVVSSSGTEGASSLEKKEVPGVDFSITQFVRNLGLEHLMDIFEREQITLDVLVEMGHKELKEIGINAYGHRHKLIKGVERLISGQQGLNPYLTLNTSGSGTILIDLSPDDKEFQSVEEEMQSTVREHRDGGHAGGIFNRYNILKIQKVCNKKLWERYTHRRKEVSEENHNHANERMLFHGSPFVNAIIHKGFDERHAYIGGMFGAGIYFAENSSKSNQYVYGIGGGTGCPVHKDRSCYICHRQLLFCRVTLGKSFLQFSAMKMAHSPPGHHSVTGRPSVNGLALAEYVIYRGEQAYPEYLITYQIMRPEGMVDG
The assay is described as follows: Modified TNKS2 Assay 3 (BPS kit #80578, biotin-NAD+, 96 well). The following applies: human TNKS2, BPS kit #80578, 96 well. It counts as biochemical. The method, boiled down:
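Commercial kit assay measuring TNKS2-catalysed incorporation of biotin-labelled NAD+ into a protein substrate, detected by streptavidin-HRP chemiluminescence. Run per manufacturer's protocol; IC50 is the concentration halving the normalised signal.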

In assay [1] the test system is wildtype Wnt signaling cascade. The assay is described as follows: HEK293 TOP Assay (Super TopFlash luciferase reporter, Wnt-3a stimulated). It counts as cell-based. The following applies: HEK293 TOP reporter cell line, Wnt-3a at EC50, 16 hours incubation, compound dilution series 50 μM to 15 nM. The essentials: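 Compounds (50 μM down to 15 nM, 3.16-fold steps, in CAFTY buffer pH 7.4, 2 mM Ca2+, 0.01% BSA) tested in parallel on TOP and FOP HEK293 reporter lines to define selective wildtype Wnt inhibition. Pathway driven by recombinant human Wnt-3a applied at 2500–5 ng/ml in two-fold dilutions.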
For orientation: In a reporter assay the amount or activity of a reporter protein is the signal.

Assay [2] relates to HEK293 FOP control reporter cell line. The assay is described as follows: HEK293 FOP Assay (FOP control vector luciferase reporter). It counts as cell-based. The following applies: Homo sapiens; HEK293 FOP control reporter cell line, 16 hours incubation, compound dilution series 50 μM to 15 nM. The essentials:
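Compound series 50 μM to 15 nM, 3.16-fold steps, were diluted in CAFTY buffer (pH 7.4, 2 mM Ca2+, 0.01% BSA) and tested alongside the TOP reporter line. Human Wnt-3a was added at 2500–5 ng/ml in two-fold steps. The control HEK293 line stably holds an FOP vector whose TCF elements are randomized and non-functional.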

Where only a bound is given, the exact number is not on record here.

What is called IC50 is the concentration at which inhibition is half-maximal. A high value points to weaker potency. In the case of `CC(CN1CCOCC1)NC(=O)c1[nH]cnc1C(=O)Nc1ccc(NC(=O)c2ccc(F)cc2Cl)cc1` (single isomer, unassigned; enantiomer 1) [Example 269, N^4-{4-[(2-chloro-4-fluorobenzoyl)amino]phenyl}-N^5-[1-(morpholin-4-yl)propan-2-yl]-1H-imidazole-4,5-dicarboxamide (enantiomer 1)], the IC50 against TNKS2 stood at 0.13 µM; in assay [1], 0.44 µM. For `CC(CN1CCOCC1)NC(=O)c1[nH]cnc1C(=O)Nc1ccc(NC(=O)c2ccc(F)cc2)cc1` (single isomer, unassigned; enantiomer 1) [Example 295, N^4-{4-[(4-fluorobenzoyl)amino]phenyl}-N^5-[1-(morpholin-4-yl)propan-2-yl]-1H-imidazole-4,5-dicarboxamide (enantiomer 1)], the figures for the IC50 (at TNKS2; in assay [1]) were 0.19 µM and 0.69 µM, respectively. For `CC(CN1CCOCC1)NC(=O)c1[nH]cnc1C(=O)Nc1ccc(NC(=O)c2ccc(F)cc2)cc1` (single isomer, unassigned; enantiomer 2) [Example 296, N^4-{4-[(4-fluorobenzoyl)amino]phenyl}-N^5-[1-(morpholin-4-yl)propan-2-yl]-1H-imidazole-4,5-dicarboxamide (enantiomer 2)], the IC50 against TNKS2 is greater than 0.5 µM; in assay [1], 6.45 µM. In the case of `O=C(Nc1ccc(NC(=O)c2[nH]cnc2C(=O)N2CC(F)C2)cc1)c1ccc(F)cc1Cl` [Example 41, N-{4-[(2-chloro-4-fluorobenzoyl)amino]phenyl}-4-[(3-fluoroazetidin-1-yl)carbonyl]-1H-imidazole-5-carboxamide], the IC50 on TNKS2 came out at 0.07 µM; in assay [1] (Homo sapiens, HEK293, 16 h), 0.09 µM. As to `O=C(Nc1ccc(NC(=O)c2[nH]cnc2C(=O)N2CC(F)C2)cc1)c1cc(F)c(F)cc1Cl` [Example 47, N-{4-[(2-chloro-4,5-difluorobenzoyl)amino]phenyl}-4-[(3-fluoroazetidin-1-yl)carbonyl]-1H-imidazole-5-carboxamide], the IC50 against TNKS2 was greater than 0.5 µM; in assay [1] (Homo sapiens, HEK293, 16 h), 0.34 µM. The corresponding values for `CN(C)CCNC(=O)c1nc[nH]c1C(=O)Nc1ccc(NC(=O)c2ccc(S(C)(=O)=O)cc2Cl)cc1` [Example 54, N^5-(4-{[2-chloro-4-(methylsulfonyl)benzoyl]amino}phenyl)-N^4-[2-(dimethylamino)ethyl]-1H-imidazole-4,5-dicarboxamide] are 0.006 µM and 1.45 µM. Consider `CCc1nc(C(=O)Nc2ccc(NC(=O)c3ccc(F)cc3Cl)cc2)c(C(=O)NCCN(C)C)[nH]1` [Example 69, N^4-{4-[(2-chloro-4-fluorobenzoyl)amino]phenyl}-N^5-[2-(dimethylamino)ethyl]-2-ethyl-1H-imidazole-4,5-dicarboxamide], for which the IC50 was 0.19 µM against TNKS2 and 0.19 µM in assay [1] (Homo sapiens, HEK293, 16 h). As for `CCc1nc(C(=O)Nc2ccc(NC(=O)c3ccc(F)cc3Cl)cc2)c(C(=O)NCCN2CCCCC2)[nH]1` [Example 70, N^4-{4-[(2-chloro-4-fluorobenzoyl)amino]phenyl}-2-ethyl-N^5-[2-(piperidin-1-yl)ethyl]-1H-imidazole-4,5-dicarboxamide], the IC50 was determined as 0.02 µM on TNKS2 and 0.13 µM in assay [1] (Homo sapiens, HEK293, 16 h).

Take `COC(=O)c1nc[nH]c1C(=O)Nc1ccc(NC(=O)c2ccccc2Cl)c(C)c1` [Example 86, methyl-5-({4-[(2-chlorobenzoyl)amino]-3-methylphenyl}carbamoyl)-1H-imidazole-4-carboxylate]: the IC50 was 0.42 µM in assay [1] (Homo sapiens, HEK293, 16 h) and 23 µM in assay [2]. For the compound `Cc1cc(NC(=O)c2[nH]cnc2C(=O)NCCN2CCCCC2)ccc1NC(=O)c1ccccc1Cl` [Example 89, N^5-{4-[(2-chlorobenzoyl)amino]-3-methylphenyl}-N^4-[2-(piperidin-1-yl)ethyl]-1H-imidazole-4,5-dicarboxamide], the IC50 in assay [1] (Homo sapiens, HEK293, 16 h) turned out to be 0.6 µM. Still for that read-out and setting: the result for `COC(=O)c1nc[nH]c1C(=O)Nc1ccc(NC(=O)c2ccc(F)cc2Cl)c(OC)c1` [Example 94, methyl 5-({4-[(2-chloro-4-fluorobenzoyl)amino]-3-methoxyphenyl}carbamoyl)-1H-imidazole-4-carboxylate] reads 0.83 µM.

For the compound `CNC(=O)c1nc[nH]c1C(=O)Nc1ccc(NC(=O)c2ccc(F)cc2Cl)c(OC)c1` [Example 95, N^5-{4-[(2-chloro-4-fluorobenzoyl)amino]-3-methoxyphenyl}-N^4-methyl-1H-imidazole-4,5-dicarboxamide], the IC50 against TNKS2 came out at 0.06 µM; in assay [1] (Homo sapiens, HEK293, 16 h) it was 0.27 µM. In assay [1] (Homo sapiens, HEK293, 16 h), `COc1cc(NC(=O)c2[nH]cnc2C(=O)NCCN(C)C)ccc1NC(=O)c1ccc(F)cc1Cl` [Example 96, N^5-{4-[(2-chloro-4-fluorobenzoyl)amino]-3-methoxyphenyl}-N^4-[2-(dimethylamino)ethyl]-1H-imidazole-4,5-dicarboxamide] returned an IC50 of 0.31 µM. In turn, `COC(=O)c1nc[nH]c1C(=O)Nc1ccc(NC(=O)c2ccccc2Cl)c(OC)c1` [Example 98, methyl 5-({4-[(2-chlorobenzoyl)amino]-3-methoxyphenyl}carbamoyl)-1H-imidazole-4-carboxylate] gave an IC50 in assay [1] (Homo sapiens, HEK293, 16 h) of 1.15 µM.

Regarding `CNC(=O)c1nc[nH]c1C(=O)Nc1ccc(NC(=O)c2ccccc2Cl)c(OC)c1` [Example 99, N^5-{4-[(2-chlorobenzoyl)amino]-3-methoxyphenyl}-N^4-methyl-1H-imidazole-4,5-dicarboxamide], the IC50 on TNKS2 was found to be 0.09 µM; in assay [1] (Homo sapiens, HEK293, 16 h), 0.54 µM. `COc1cc(NC(=O)c2[nH]cnc2C(=O)NCCN(C)C)ccc1NC(=O)c1ccccc1Cl` [Example 100, N^5-{4-[(2-chlorobenzoyl)amino]-3-methoxyphenyl}-N^4-[2-(dimethylamino)ethyl]-1H-imidazole-4,5-dicarboxamide] had an IC50 in assay [1] (Homo sapiens, HEK293, 16 h) of 0.79 µM. Turning to `COC(=O)c1nc[nH]c1C(=O)Nc1ccc(NC(=O)c2ccc(F)cc2)c(OC)c1` [Example 102, methyl 5-({4-[(4-fluorobenzoyl)amino]-3-methoxyphenyl}carbamoyl)-1H-imidazole-4-carboxylate], the IC50 in assay [1] (Homo sapiens, HEK293, 16 h) was determined as 50 µM. Turning to `CNC(=O)c1[nH]c(C(C)C)nc1C(=O)Nc1ccc(NC(=O)c2ccc(F)cc2Cl)cc1` [Example 106, N^4-{4-[(2-chloro-4-fluorobenzoyl)amino]phenyl}-2-isopropyl-N^5-methyl-1H-imidazole-4,5-dicarboxamide], the IC50 in assay [1] (Homo sapiens, HEK293, 16 h) is 27 µM; in assay [2], 13 µM. For the compound `CC(C)c1nc(C(=O)Nc2ccc(NC(=O)c3ccc(F)cc3Cl)cc2)c(C(=O)NCCN2CCCCC2)[nH]1` [Example 108, N^4-{4-[(2-chloro-4-fluorobenzoyl)amino]phenyl}-2-isopropyl-N^5-[2-(piperidin-1-yl)ethyl]-1H-imidazole-4,5-dicarboxamide], the IC50 against TNKS2 was greater than 0.5 µM; in assay [1] (Homo sapiens, HEK293, 16 h), 5 µM. In assay [1] (Homo sapiens, HEK293, 16 h), `CNC(=O)c1nc[nH]c1C(=O)Nc1ccc(NC(=O)c2ccccc2Cl)nc1` [Example 112, N^5-{6-[(2-chlorobenzoyl)amino]pyridin-3-yl}-N^4-methyl-1H-imidazole-4,5-dicarboxamide] registered an IC50 of 2.55 µM. Regarding `CN(C)CCNC(=O)c1nc[nH]c1C(=O)Nc1ccc(NC(=O)c2ccccc2Cl)nc1` [Example 113, N^5-{6-[(2-chlorobenzoyl)amino]pyridin-3-yl}-N^4-[2-(dimethylamino)ethyl]-1H-imidazole-4,5-dicarboxamide], in assay [1] (Homo sapiens, HEK293, 16 h), half-maximal inhibition (IC50) was put at 0.46 µM.
